{
  "source": "patent US9181309B1",
  "about": "“Peptide regulation of maize defense responses” (The United States of America, as represented by the …, priority 2011, dated 2015)",
  "key": {"S. exigua": {"test_system": "S. exigua", "assay": "Larval growth on peptide-pretreated leaves", "type": "in vivo, Spodoptera exigua", "conditions": "compared to untreated or water-treated leaves", "procedure": "To assess the role of ZmPep3-induced direct defenses, S. exigua growth on peptide-pretreated leaves was evaluated. […] This effect was expected given the potency of ZmPep3-induced proteins and benzoxazinoids against herbivores."}, "[1]": {"test_system": "defense-related genes in excised maize leaves", "assay": "Excised leaf bioassay, semi-quantitative RT-PCR of defense marker genes", "type": "in vivo, Zea mays", "procedure": "Over a 16.5 hour time-course, excised maize leaves were supplied with either a solution of ZmPEP3 peptide or with a water control. Based on the average volume of ZmPEP3 solution taken up by the maize leaves, each leaf was exposed to around 1.8 nMols of peptide per gram of leaf material over the time course study. Zero hour treatments indicate leaves that were immediately harvested at the beginning of the study; the other time points refer to hours elapsed after leaves were excised and placed into solution. As a control to observe herbivory-induced expression of these genes, a timecourse of exposure to herbivory by Spodoptera frugiperda (fall armyworm, FAW) was performed for comparison. As described in the Material and Methods, when using the semi-quantitative RT-PCR analysis technique, observed band intensity is indicative of initial transcript abundance in a sample, thus bands of greater intensity represent sample with enriched transcript abundance.\nMaize tissues that had been harvested and frozen in liquid nitrogen were ground to a fine powder using a porcelain mortar and pestle. Approximately 100 mg of frozen powdered plant material was transferred to a 2 mL microcentrifuge tubes to which 1 mL of Trizol reagent (Invitrogen, Carlsbad Calif.) was added. RNA isolation was performed as per the Trizol instructions, supplemented by an acid:phenol:chloroform partitioning step to minimize contaminating DNA. RNA was solublized in 50 μL diethylpyrocarbonate (DEPC)-treated water. RNA yield was quantified by measuring the A260, and the samples were stored at −20° C.\nRNA was reverse transcribed using all components from the RETROscript kit (Ambion, Austin Tex.). The 20 μL reverse transcription reactions were assembled as per kit instructions The reverse transcription reaction was allowed to proceed for one hour at 44° C., followed by a ten minute incubation at 92° C.\nSemi-quantitative RT-PCR reactions were assembled as follows: 1.2 μL of the cDNA generated in the reverse transcription reactions was used as template for 25 μL PCR reactions. Each reaction contained Platinum 10×PCR buffer (Invitrogen, Carlsbad Calif.) and the final concentration of Mg^2+ and dNTPs were 1.5 mM and 200 μM, respectively. Platinum Taq polymerase (Invitrogen, Carlsbad Calif.) was added at 0.5 units per reaction, while primers were used at 0.4 μM each. All primers were designed to for an annealing temperature of 56° C., to amplify a product of 250 to 350 base pairs and to span introns when possible. The ZmActin1 gene transcript (GenBank# J01238) has been described in the literature as an effective housekeeping control transcript for the study of maize defense gene expression (Erb et al., 2009), and was therefore used to permit comparisons of relative transcript abundance from sample to sample. Genes to be analyzed for responsiveness to ZmPep3 were all shown in previous work to be associated with either pathogen or herbivore resistance (Erb et al., Plant J 59: 292, 2009; Doehlemann et al., Plant J. 56:181, 2008; Köliner et al., Plant Cell 20: 482, 2008; Chen et al., Phytopathology 94:938, 2004; Chen et al., Phytopathology 97:1094, 2007; Schnee et al., Plant Physiol 130: 2049, 2002; Frey et al., Proc Natl Acad Sci USA. 97:14801, 2000)."}, "[2]": {"test_system": "volatile emission from maize leaves", "assay": "Volatile collection and GC analysis of emitted volatiles from excised maize leaves", "type": "in vivo, Zea mays", "procedure": "Volatiles were collected by a previously described method (Schmelz et al., Planta. 214:171, 2001). Briefly, excised leaves were placed in glass cylinders (Analytical Research Systems, Gainesville, Fla., USA) and maintained under their original lighting conditions. Clean, humidified air was passed through the cylinders (550 ml/min) and the leaf-emitted volatiles were trapped on 50 mg Super Q (80/100 mesh; Alltech, Deerfield, Ill., USA) for 30 minutes. Super Q traps were eluted with 150 μl methylene chloride with 400 ng of nonyl acetate added as an internal standard. At least three leaf replicates were used for each treatment. Volatiles were analyzed by gas chromatography-mass spectrometry (GC-MS) using an Agilent (Agilent Technologies, Inc., Santa Clara, Calif.) 7890A gas chromatograph (carrier gas; He at 1.2 ml min^−1; splitless injector, temperature 220° C., injection volume 1 μl) with an DB-1MS column (100% Dimethylpolysiloxane; 15 m long, 250 μm i.d., 0.1 μm film thickness). Temperatures were programmed from 40° C. (0.5 min hold) at 12° C. min^−1 to 180° C. then 220° C. (2.0 min hold for the post run). Signals were captured with a flame ionization detector (250° C.). The GC was coupled to an HP 5973 quadrupole-type mass selective detector with transfer line, source, and quadrupole temperatures of 230° C., 230° C. and 150° C., respectively. […] Volatile compounds were identified by comparison of retention times with authentic standards and by comparison of mass spectra with Wiley and NIST libraries."}, "[3]": {"conditions": "later time points, vs water-supplied leaves"}},
  "data": [
    {"substance": "ZmPEP3: 23 amino acid maize plant elicitor peptide TRTPPWPPCPPEEGSGGNGGSHN (SEQ ID NO: 3) (Zea mays)", "values": [
      {"measurement": "less biomass gain of second instar larvae", "setting": "S. exigua", "value": 40, "unit": "%"},
      {"measurement": "number of defense-related genes identified as ZmPEP3-responsive", "setting": "[1]; excised leaf assays", "value": "twenty"},
      {"measurement": "time at which AOS transcript increases in abundance", "setting": "[1]; excised leaves, around 1.8 nMols of peptide per gram of leaf", "value": 2, "unit": "h"},
      {"measurement": "endochitinase A transcript levels", "setting": "[1]; excised leaves, around 1.8 nMols of peptide per gram of leaf, early time points, vs water", "value": "increased transcript levels at all early time points"},
      {"measurement": "IGL expression", "setting": "[1]; later time points", "value": "strongly induced"},
      {"measurement": "AOS transcript levels", "setting": "[1]; [3]", "value": "markedly increased"},
      {"measurement": "TPS23 transcript abundance", "setting": "[1]; [3]", "value": "increased greatly"},
      {"measurement": "peroxidase transcript accumulation", "setting": "[1]; later timepoints, not detectable in water-supplied leaves", "value": "marked induction of transcript accumulation"},
      {"measurement": "increase in total defense volatile emission compared to water-supplied leaves", "setting": "[2]; 1.8 nMol peptide per gram of leaf material", "value": 91, "unit": "%"},
      {"measurement": "volatile profile vs water-supplied leaves", "setting": "[2]; 18 or 180 fMols of peptide per gram of leaf, 30 minutes collection", "value": "almost the same as leaves supplied with water"},
      {"measurement": "lowest concentration with significant increases in defense volatile emission", "setting": "[2]; 30 minutes collection", "value": "1.8 pMol ZmPEP3 peptide per gram of leaf material"},
      {"measurement": "profile of volatile compounds emitted in thirty minutes", "setting": "[2]; GC, vs water-supplied leaves", "value": "Many molecules are detected"},
      {"measurement": "difference in terpenes emitted, ZmPep3 versus Gln-18:3", "setting": "[2]; equivalent molar concentrations", "value": "no significant quantitative difference"},
      {"measurement": "indole emission relative to damage alone", "setting": "[2]; in vivo", "value": "increased above damage alone"},
      {"measurement": "spectrum of elicited volatile components compared with S. exigua herbivory", "setting": "[2]; in vivo", "value": "same spectrum of volatile components"},
      {"measurement": "increase in DMNT emission over water-treated leaves", "setting": "[2]; six hour period", "value": 6, "unit": "fold"},
      {"measurement": "increase in alpha-bergamotene emission over water-treated leaves", "setting": "[2]; six hour period", "value": "over a thousand fold"},
      {"measurement": "increase in beta-caryophyllene emission over water-treated leaves", "setting": "[2]; six hour period", "value": "over 100 fold"},
      {"measurement": "increase in beta-farnesene emission over water-treated leaves", "setting": "[2]; six hour period", "value": "over 900 fold"},
      {"measurement": "increase in indole emission over water-treated leaves", "setting": "[2]; six hour period", "value": "over 100 fold"},
      {"measurement": "increase in nerolidol emission over water-treated leaves", "setting": "[2]; six hour period", "value": 360, "unit": "fold"}
    ]}
  ]
}
